From patent publication US20250296953A1, “3,4-THIAZOLO-STEROIDS AND METHODS OF MAKING AND USING THE SAME” (Arkansas State University - Jonesboro, priority 2018, published 2025)
Read-outs that look alike come from different tables or passages of the source.

Key:
glioblastoma (SF-295) = experiment: NCI 60 five dose screen; conditions: SF-295 (CNS Cancer), five dose
[1] = test system: 60 different human tumor cell lines; conditions: five dose; for CC50: read-out: LC50
[2] = A549/ATCC (Non-small Cell Lung Cancer)
[3] = EKVX (Non-small Cell Lung Cancer)
[4] = HOP-62 (Non-small Cell Lung Cancer)
[5] = HOP-92 (Non-small Cell Lung Cancer)
[6] = MDA-MB-231/ATCC (Breast Cancer)
[7] = NCI-H23 (Non-small Cell Lung Cancer)
[8] = NCI-H226 (Non-small Cell Lung Cancer)
[9] = NCI-H322M (Non-small Cell Lung Cancer)
[10] = NCI-H460 (Non-small Cell Lung Cancer)
[11] = NCI-H522 (Non-small Cell Lung Cancer)

Question: What does the source list for `C[C@]12CCc3nc(N)sc3C1=CC[C@@H]1[C@@H]2CC[C@]2(C)C(=NNC(N)=O)CC[C@@H]12` [IVb.1]?
Answer: GI50 (glioblastoma (SF-295)): 1610 nM; TGI (glioblastoma (SF-295)): 3.03E−6; CC50 (glioblastoma (SF-295); read-out: LC50): 5710 nM; GI50 ([1]; 786-0 (Renal Cancer)): 1390 nM; TGI ([1]; 786-0 (Renal Cancer)): 2.82E−6; GI50 ([1]; A498 (Renal Cancer)): 2100 nM; TGI ([1]; A498 (Renal Cancer)): 6.83E−6; GI50 [1, 2]: 2020 nM; TGI [1, 2]: 3.89E−6; GI50 ([1]; ACHN (Renal Cancer)): 1800 nM; TGI ([1]; ACHN (Renal Cancer)): 3.19E−6; GI50 ([1]; BT-549 (Breast Cancer)): 2840 nM; TGI ([1]; BT-549 (Breast Cancer)): 8.91E−6; GI50 ([1]; CAKI-1 (Renal Cancer)): 1770 nM; TGI ([1]; CAKI-1 (Renal Cancer)): 3.64E−6; GI50 ([1]; CCRF-CEM (Leukemia)): 280 nM; TGI ([1]; CCRF-CEM (Leukemia)): 1.62E−6; GI50 ([1]; COLO 205 (Colon Cancer)): 2060 nM; TGI ([1]; COLO 205 (Colon Cancer)): 4.37E−6; GI50 ([1]; DU-145 (Prostate Cancer)): 1750 nM; TGI ([1]; DU-145 (Prostate Cancer)): 3.41E−6; GI50 [1, 3]: 1800 nM; TGI [1, 3]: 3.63E−6; GI50 ([1]; HCC-2998 (Colon Cancer)): 1740 nM; TGI ([1]; HCC-2998 (Colon Cancer)): 3.28E−6; GI50 ([1]; HCT-15 (Colon Cancer)): 1460 nM; TGI ([1]; HCT-15 (Colon Cancer)): 2.86E−6; GI50 ([1]; HCT-116 (Colon Cancer)): 2090 nM; TGI ([1]; HCT-116 (Colon Cancer)): 4.35E−6; GI50 ([1]; HL-60(TB) (Leukemia)): 2730 nM; TGI ([1]; HL-60(TB) (Leukemia)): 7.95E−6; GI50 [1, 4]: 1840 nM; TGI [1, 4]: 3.47E−6; GI50 [1, 5]: 1510 nM; TGI [1, 5]: 3.16E−6; GI50 ([1]; HS 578T (Breast Cancer)): 2080 nM; TGI ([1]; HS 578T (Breast Cancer)): 5.15E−6; GI50 ([1]; HT29 (Colon Cancer)): 1880 nM; TGI ([1]; HT29 (Colon Cancer)): 3.73E−6; GI50 ([1]; IGROV1 (Ovarian Cancer)): 1780 nM; TGI ([1]; IGROV1 (Ovarian Cancer)): 3.43E−6; GI50 ([1]; K-562 (Leukemia)): 1810 nM; TGI ([1]; K-562 (Leukemia)): 5.08E−6; GI50 ([1]; KM12 (Colon Cancer)): 2010 nM; TGI ([1]; KM12 (Colon Cancer)): 4.01E−6; GI50 ([1]; LOX IMVI (Melanoma)): 1710 nM; TGI ([1]; LOX IMVI (Melanoma)): 3.12E−6; GI50 ([1]; M14 (Melanoma)): 1940 nM; TGI ([1]; M14 (Melanoma)): 3.77E−6; GI50 ([1]; MALME-3M (Melanoma)): 1760 nM; TGI ([1]; MALME-3M (Melanoma)): 3.49E−6; GI50 ([1]; MCF7 (Breast Cancer)): 1520 nM; TGI ([1]; MCF7 (Breast Cancer)): 3.14E−6; GI50 [1, 6]: 1700 nM; TGI [1, 6]: 3.43E−6; GI50 ([1]; MDA-MB-435 (Melanoma)): 1330 nM; TGI ([1]; MDA-MB-435 (Melanoma)): 2.70E−6; GI50 ([1]; MDA-MB-468 (Breast Cancer)): 1600 nM; TGI ([1]; MDA-MB-468 (Breast Cancer)): 3.17E−6; GI50 ([1]; MOLT-4 (Leukemia)): 2640 nM; TGI ([1]; MOLT-4 (Leukemia)): 7.02E−6; GI50 [1, 7]: 1780 nM; TGI [1, 7]: 3.32E−6; GI50 [1, 8]: 2090 nM; TGI [1, 8]: 4.91E6; GI50 [1, 9]: 1770 nM; TGI [1, 9]: 3.55E−6; GI50 [1, 10]: 1920 nM; TGI [1, 10]: 3.61E−6; GI50 [1, 11]: 1930 nM; TGI [1, 11]: 4.06E−6; GI50 ([1]; NCI/ADR-RES (Ovarian Cancer)): 1940 nM; TGI ([1]; NCI/ADR-RES (Ovarian Cancer)): 3.87E−6; GI50 ([1]; OVCAR-3 (Ovarian Cancer)): 1870 nM; TGI ([1]; OVCAR-3 (Ovarian Cancer)): 3.44E−6; GI50 ([1]; OVCAR-4 (Ovarian Cancer)): 1740 nM; TGI ([1]; OVCAR-4 (Ovarian Cancer)): 3.17E−6; GI50 ([1]; OVCAR-5 (Ovarian Cancer)): 1710 nM; GI50 ([1]; OVCAR-8 (Ovarian Cancer)): 1850 nM; TGI ([1]; OVCAR-8 (Ovarian Cancer)): 3.63E−6; GI50 ([1]; PC-3 (Prostate Cancer)): 1250 nM; TGI ([1]; PC-3 (Prostate Cancer)): 2.75E−6; GI50 ([1]; RXF 393 (Renal Cancer)): 1610 nM; TGI ([1]; RXF 393 (Renal Cancer)): 3.23E−6; GI50 ([1]; SF-268 (CNS Cancer)): 1780 nM; TGI ([1]; SF-268 (CNS Cancer)): 4.11E−6; GI50 ([1]; SK-MEL-2 (Melanoma)): 1980 nM; TGI ([1]; SK-MEL-2 (Melanoma)): 4.58E−6; GI50 ([1]; SK-MEL-5 (Melanoma)): 1570 nM; TGI ([1]; SK-MEL-5 (Melanoma)): 2.97E−6; GI50 ([1]; SK-MEL-28 (Melanoma)): 1630 nM; TGI ([1]; SK-MEL-28 (Melanoma)): 3.10E−6; GI50 ([1]; SK-OV-3 (Ovarian Cancer)): 6210 nM; TGI ([1]; SK-OV-3 (Ovarian Cancer)): 2.23E−6; GI50 ([1]; SN12C (Renal Cancer)): 1890 nM; TGI ([1]; SN12C (Renal Cancer)): 3.45E−6; GI50 ([1]; SNB-19 (CNS Cancer)): 1870 nM; TGI ([1]; SNB-19 (CNS Cancer)): 3.62E−6; GI50 ([1]; SNB-75 (CNS Cancer)): 1580 nM; TGI ([1]; SNB-75 (CNS Cancer)): 3.50E−6; GI50 ([1]; SW-620 (Colon Cancer)): 1690 nM; TGI ([1]; SW-620 (Colon Cancer)): 3.39E−6; GI50 ([1]; T-47D (Breast Cancer)): 1860 nM; TGI ([1]; T-47D (Breast Cancer)): 3.80E−6; GI50 ([1]; TK-10 (Renal Cancer)): 2290 nM; TGI ([1]; TK-10 (Renal Cancer)): 5.45E−6; GI50 ([1]; U251 (CNS Cancer)): 1770 nM; TGI ([1]; U251 (CNS Cancer)): 3.22E−6; GI50 ([1]; UACC-62 (Melanoma)): 1630 nM; TGI ([1]; UACC-62 (Melanoma)): 3.13E−6; GI50 ([1]; UACC-257 (Melanoma)): 2400 nM; TGI ([1]; UACC-257 (Melanoma)): 5.83E−6; GI50 ([1]; UO-31 (Renal Cancer)): 1520 nM; TGI ([1]; UO-31 (Renal Cancer)): 2.88E−6; CC50 ([1]; 786-0 (Renal Cancer)): 5960 nM; CC50 ([1]; A498 (Renal Cancer)): 27800 nM; CC50 [1, 2]: 7510 nM; CC50 ([1]; ACHN (Renal Cancer)): 5680 nM; CC50 ([1]; BT-549 (Breast Cancer)): 88500 nM; CC50 ([1]; CAKI-1 (Renal Cancer)): 7490 nM; CC50 ([1]; CCRF-CEM (Leukemia)): > 100000 nM; CC50 ([1]; COLO 205 (Colon Cancer)): 9250 nM; CC50 ([1]; DU-145 (Prostate Cancer)): 6660 nM; CC50 [1, 3]: 7320 nM; CC50 ([1]; HCC-2998 (Colon Cancer)): 6150 nM; CC50 ([1]; HCT-15 (Colon Cancer)): 5600 nM; CC50 ([1]; HCT-116 (Colon Cancer)): 9070 nM; CC50 ([1]; HL-60(TB) (Leukemia)): > 100000 nM; CC50 [1, 4]: 6540 nM; CC50 [1, 5]: 6600 nM; CC50 ([1]; HT29 (Colon Cancer)): 7410 nM; CC50 ([1]; IGROV1 (Ovarian Cancer)): 6630 nM; CC50 ([1]; K-562 (Leukemia)): 40400 nM; CC50 ([1]; KM12 (Colon Cancer)): 6790 nM; CC50 ([1]; LOX IMVI (Melanoma)): 5720 nM; CC50 ([1]; M14 (Melanoma)): 7310 nM; CC50 ([1]; MALME-3M (Melanoma)): 6900 nM; CC50 ([1]; MCF7 (Breast Cancer)): 6500 nM; CC50 [1, 6]: 6900 nM; CC50 ([1]; MDA-MB-435 (Melanoma)): 5490 nM; CC50 ([1]; MDA-MB-468 (Breast Cancer)): 6300 nM; CC50 ([1]; MOLT-4 (Leukemia)): 93300 nM; CC50 [1, 7]: 6210 nM; CC50 [1, 8]: 17400 nM; CC50 [1, 10]: 6790 nM; CC50 [1, 11]: 8550 nM; CC50 ([1]; NCI/ADR-RES (Ovarian Cancer)): 7710 nM; CC50 ([1]; OVCAR-3 (Ovarian Cancer)): 6340 nM; CC50 ([1]; OVCAR-4 (Ovarian Cancer)): 5780 nM; CC50 ([1]; OVCAR-5 (Ovarian Cancer)): 5960 nM; CC50 ([1]; OVCAR-8 (Ovarian Cancer)): 7110 nM; CC50 ([1]; PC-3 (Prostate Cancer)): 6010 nM; CC50 ([1]; RXF 393 (Renal Cancer)): 6480 nM; CC50 ([1]; SF-268 (CNS Cancer)): 9480 nM; CC50 ([1]; SK-MEL-2 (Melanoma)): 12400 nM; CC50 ([1]; SK-MEL-5 (Melanoma)): 5610 nM; CC50 ([1]; SK-MEL-28 (Melanoma)): 5880 nM; CC50 ([1]; SK-OV-3 (Ovarian Cancer)): 66700 nM; CC50 ([1]; SN12C (Renal Cancer)): 6330 nM; CC50 ([1]; SNB-19 (CNS Cancer)): 7010 nM; CC50 ([1]; SNB-75 (CNS Cancer)): 7760 nM; CC50 ([1]; SW-620 (Colon Cancer)): 8550 nM; CC50 ([1]; T-47D (Breast Cancer)): 7770 nM; CC50 ([1]; TK-10 (Renal Cancer)): 19300 nM; CC50 ([1]; U251 (CNS Cancer)): 5860 nM; CC50 ([1]; UACC-62 (Melanoma)): 5980 nM; CC50 ([1]; UACC-257 (Melanoma)): 25700 nM; CC50 ([1]; UO-31 (Renal Cancer)): 5440 nM
